Laboratory results reported in US11179452B2, “Antigen specific multi epitope vaccines” (priority 2006, dated 2021).

Columns and labels:
Type in all cases: cell-based, human
[1] = system: PBL; assay: Proliferation of PBL, DC indirect presentation (peptide-pulsed autologous DC); conditions: for Optimal dose via DC: optimal dose required for PBL activation; for Optimal dose via DC / Peak of Proliferation (Hours) via DC: average of 5 experiments; for Peak of Proliferation (Hours) via DC: visual inspection by light microscopy daily during 5 days; for IS (as indicated in Table 12): two donors
Protocol: (§1) Human PBMC were separated from buffy coat samples of naive donors using Ficoll UNI-SEPmaxi tube. Separated cells were suspended in RPMI medium supplemented with 10% FCS, L-Glutamine, Sodium Pyruvate, MEM-EAGLE non-essential amino-acids, HEPES and Gentamycin Sulphate (Bet-Haemek Industries, IL) and cultivated for 4 h at 37° C. in a culture dish (Corning 150 mm×25 mm). Adherent cells were collected and cultured for 7 days in serum free DCCM-1 medium supplemented with L-Glutamine, huIL-4 (1000 IU/ml) (Cytolab IL) and GM-CSF-80 ug/ml (Cytolab IL). On day seven floating cells were collected and loaded with 50 ug/ml of examined peptide for 18 h at 37° C.
(§2) Proliferation analysis was conducted in three different methods. In all three methods, plates were cultured for 3-5 days under visual control and then 0.5 […]Cu/well of 3[H] (Amersham) was added for additional culture of to 18 h at 37° C. In the last step, plates were harvested and the radioactive counts were measured in a □ counter. • 1. DC indirect presentation: In the first method, 100 µl of 2×10^6 thawed PBL were placed in U-shape Bottom 96 well plate (Nunc) with RPMI medium supplemented with 5% H AB serum, L-Glutamine, Sodium Pyruvate, MEM-EAGLE non-essential amino-acids, HEPES and Gentamycin. At the next stage 100 µl of 25×10^4 peptide-pulsed DC were added to each three wells of PBL and underwent proliferation analysis as described above. • 2. PBL direct presentation: In the 2nd method, 100 µl of 2×10^6 PBL were placed in Flat Bottom 96 well plates (Corning) and stimulated with different concentrations (0.05 ug/ml-2 ug/ml) of peptides. In the next step the cells underwent proliferation analysis as described above. • 3. PBMC direct presentation: In third method PNMC were used under similar conditions as described for the second method.
In the first set of experiments, the 21mer ImMucin, its different 9mer epitopes and other control epitopes (Table 3) were evaluated in proliferation assays with the aim of finding their optimal mode of presentation, stimulated dose as well as their peak of activity (time wise).
To evaluate the most efficient method for priming of PBLs with the different peptides, the following methods were compared:
a. In-direct presentation of the peptide via Autologues-pulsed DC
(§3) Five experiments were performed according to the protocol described in material and methods with buffy-coat enriched PBLs obtained from six different naive donors (obtained from the Israeli blood bank).

[2] = system: PBL; assay: Proliferation of PBL, direct presentation of peptide without APC; conditions: for Optimal dose Direct no APC: optimal dose required for PBL activation, six donors; for Optimal dose Direct no APC / Peak of Proliferation (Hours) Direct no APC: average of 5 experiments; for Peak of Proliferation (Hours) Direct no APC: visual inspection daily during 5 days
[3] = system: PBMC; assay: Proliferation, direct presentation of peptide via PBMC (monocytes); conditions: for PBL Index of stimulation (SI) via PBMC: naive donors, representative of 5 experiments; for Optimal dose via PBMC: optimal dose required for PBL activation, six donors; for Optimal dose via PBMC / Peak of Proliferation (Hours) via PBMC: average of 5 experiments; for Peak of Proliferation (Hours) via PBMC: visual inspection daily during 5 days
Protocol: as §2
b. Direct presentation of the peptides via PBMC i.e. monocytes
as §3

[4] = system: PBL; assay: ELISA of cytokine secretion by PBL stimulated once with peptide-pulsed DC
Protocol: as §1
(§4) Cytokine release was studied during the culture of stimulated T-cells. The evaluated samples were collected from the T cell culture medium on day 2, 3, and 5 and stored until use at −20° C.
(§5) […] of the selected capture antibody (e.g. anti-Hu IFN-Gamma, or anti-Hu TNF-alfa or anti IL-2) were added to each well at the final concentration of 5 μg/ml in PBS. Plates were incubated for 2 h at R.T. or over night at 4° C. Next, […] of blocking solution were added for an incubation of 2 h at R.T. […] of evaluated samples were added in duplicate into 2 wells for 2 hours at RT. After 2 h of incubation at R.T plates were washed λ4 times in washing solution. In the next step, a Biotin-conjugated detection antibody (relevant to coated antibody) was added at a final concentration of 10 μg/ml in total volume of 100 μl for 1 h at R.T. Finally, 100 μl/well working dilution (1:10000 in Blocker solution) of Streptavidin-HRP were added to each well and incubated for 1 h at R.T.
(§6) Plates were washed λ6 times with PBS-Tween (0.4%) and 100 μl/well of TMB/E Solution (CHEMICON, Catalog #ES001) was added. The plates were then exposed until blue color appeared in the wells of the positive control and no color was detected in the blank wells. To stop the color reaction, 50 μl/well of 10% of Sulfuric acid was added. The plates were counted in ELISA-Reader using a 450 nm filter.

[5] = system: ImMucin specific T-cell subpopulation; assay: Proliferation of the ImMucin-specific T-cell subpopulation after three stimulations; conditions: one out of two experiments, four donors
Description: (§7) Thawed PBLs underwent 1st stimulation with ImMucin pulsed Autologues DC at a ratio of 20:1 and cultured for 7 days in dedicated T cell Medium. T cell medium contained RPMI medium supplemented with 10% FCS, L-Glutamine, Sodium Pyruvate, MEM-EAGLE non-essential amino-acids, HEPES and Gentamycin Sulphate (Bet-Haemek Industries, IL) as well as with 50 IU/ml of recombinant IL-7 (Cytolab IL). For the second stimulation, PBL were transferred to adherent autologues ImMucin-pulsed PBMC and cultured for additional 5 days in T cell Medium. At the end of the 5 days, medium was partial replaced with fresh medium containing 1 ug/ml of ImMucin and 50 IU/ml IL-2 for a third stimulation of 48 h at 37° C. Following the last stimulation ImMucin T cell line was checked for immune activation properties.
as §2
(§8) For that purpose, an enriched ImMucin-specific T cell subpopulation was produced via repeated stimulation with ImMucin. The specificity of the subpopulation for ImMucin, as well as to the other VXL epitopes, was examined using proliferation assays, cytokine release assays, FACS analysis in which the percentage and type of cells enriched during the enrichment process was analyzed, and using a CTL assay against selected target cells.
(§9) For producing the specific T cell subpopulation PBL were stimulated three times for 7, 5 and 2 days with ImMucin presented via DC and PBMC. Following the 3rd stimulation the cells were evaluated against the different VXL epitopes.

[6] = system: T-Cell specific subpopulation (Clones); assay: ELISA of cytokine secretion by the T-cell specific subpopulation (clones) stimulated with peptides; conditions: two experiments, four donors
Description: as §7, §4, §5, §6, §8, §9

[7] = system: lymphocytes from naive donors; assay: Proliferation assay, kinetics of lymphocyte activation as summarised in text (presentation mode not stated); conditions: summary of five experiments
Protocol: as §2
A different parameter for assessing the properties of ImMucin and the other VXL-peptide epitopes is by analyzing the time until a maximal peak of activity occurs and the optimal dose for maximal stimulation. Maximal peak of PBL activation is determined when <50% of the PBLs appear in clumps. In these experiments, the kinetic (time) in the proliferation of lymphocytes from the six naive donors stimulated at a fix dose of 0.05-1 ug/ml by ImMucin and other VXL-Peptides, was observed.

[8] = naive donors, CPM sample / CPM control, representative of 5 experiments
[9] = naive donors, representative of 5 experiments
[10] = peptide DC ratio 16:1, one out of five experiments, six donors
[11] = average of two healthy donors (Table 11)
[12] = peptide pulsed DC ratio 16:1, one out of two experiments, two donors (Table 12)

Compound	PBL Index of stimulation (SI) via DC [1, 8]	Optimal dose via DC ([1]; six donors)	Peak of Proliferation (Hours) via DC [1]	PBL Index of stimulation (SI) Direct no APC [2, 9]	Optimal dose Direct no APC [2]	Peak of Proliferation (Hours) Direct no APC [2]	PBL Index of stimulation (SI) via PBMC [3]	Optimal dose via PBMC [3]	Peak of Proliferation (Hours) via PBMC [3]	IS (as indicated in Table 12) [1]	PBL Index of stimulation (SI) Direct no APC [2, 11]	TNF-Alfa [4, 12]	also measured
CSCC[C@H](N)C(=O)N[C@@H](CC(C)C)C(=O)N[C@@H](CC(C)C)C(=O)N[C@@H](C)C(=O)N[C@H](C(=O)N[C@@H](CC(C)C)C(=O)N[C@@H](Cc1ccc(O)cc1)C(=O)N[C@@H](CS)C(=O)N[C@@H](CC(C)C)C(=O)O)C(C)C [VXL-11, MLLAVLYCL, reference compound]	1.65	12.5-25 × × 10e6/well	96 h	0	No Influence	No proliferation	1.25	0.05 to 1 µg/mL	96 h	–	–	–	IS (SI of the peptides as indicated in Table 7) ([1]; one out of five experiments, six donors): 1.65; IFN-gamma [4, 10]: 0 ng/mL; IL-2 [4, 10]: 0 ng/mL; IS (Average) [5]: 1.14; IS (Range) [5]: 1-1.28; IL-2 % of clones [6]: 0%; IL-2 Range [6]: 0 ng/mL; INF-gamma % of clones [6]: 33%; INF-gamma Range [6]: 2.2 to 4.7 ng/mL; TNF-Alfa % of clones [6]: 0%; TNF-Alfa Range [6]: 0 ng/mL
ALCRWGLLL [VXL-8, reference compound]	1.75	12.5-25 × × 10e6/well	120 h	0	No Influence	No proliferation	1.5	0.05 to 1 µg/mL	120 h	–	–	–	peak of proliferation / maximum stimulation [7]: 120 h
MAARAVFLAL SAQLLQA (MAARAVFLALSAQLLQA; listed as Homo sapiens) [VXL-102, signal peptide vaccine derived from melanoma associated TAA BAGE]	–	–	–	–	–	–	–	–	–	1.9	0	15.5 ng/mL	–
MWATQGLAVALALSVLPGSRA (MWATQGLAVALALSVLPGSRA; listed as Homo sapiens) [VXL-101, signal peptide vaccine derived from ARMET]	–	–	–	–	–	–	–	–	–	2.8	0	10.5 ng/mL	PBL Index of stimulation (SI) via DC [1, 11]: 2.8; PBL Index of stimulation (SI) via DC ([1]; average of two healthy donors (Table 11), listed as Armet): highest SI; IL-2 [4, 12]: 0 ng/mL
